In US20110098288A1, “SULFONAMIDES AS ZAP-70 INHIBITORS” (priority 2008, published 2011):

Experiments:
[1] = biological target: T1, ZAP-70 (Homo sapiens, UniProt P43403); experiment: ZAP-70 kinobeads assay; format: binding; details: competition with immobilized aminopyrido-pyrimidine ligand 24 in cell lysate; ZAP-70 detected by dot blot
T1 construct: endogenous in cells; host or cells: cell lysate
T1 sequence (P43403 1-619): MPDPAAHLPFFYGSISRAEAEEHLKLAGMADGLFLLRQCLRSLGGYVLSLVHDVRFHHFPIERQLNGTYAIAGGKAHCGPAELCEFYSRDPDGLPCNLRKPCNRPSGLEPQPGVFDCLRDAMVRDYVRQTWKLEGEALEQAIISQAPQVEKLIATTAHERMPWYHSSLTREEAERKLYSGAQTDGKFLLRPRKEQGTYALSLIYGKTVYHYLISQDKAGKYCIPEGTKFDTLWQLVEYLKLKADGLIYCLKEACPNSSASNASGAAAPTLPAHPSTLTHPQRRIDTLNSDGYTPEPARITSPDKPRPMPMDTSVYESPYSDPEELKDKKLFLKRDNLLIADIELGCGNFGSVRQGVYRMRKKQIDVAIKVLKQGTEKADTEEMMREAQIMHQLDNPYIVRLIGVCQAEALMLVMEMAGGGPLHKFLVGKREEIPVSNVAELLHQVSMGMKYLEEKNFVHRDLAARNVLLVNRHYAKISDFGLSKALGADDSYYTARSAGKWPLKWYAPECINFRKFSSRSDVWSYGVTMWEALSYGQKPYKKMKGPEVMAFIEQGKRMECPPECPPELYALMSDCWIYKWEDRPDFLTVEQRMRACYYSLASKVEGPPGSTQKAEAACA
Outline: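 Cell lysate aliquots incubated with test compounds at various concentrations plus affinity beads carrying immobilized aminopyrido-pyrimidine ligand 24. Bead-captured proteins eluted; ZAP-70 quantified by specific antibody dot blot with infrared detection.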

[2] = test system: Jurkat cells; experiment: Calcium release assay (Fluo-4 flow cytometry after anti-CD3 stimulation); format: cell-based; details: Homo sapiens, Jurkat cell line J77, anti-CD3 activation, read-out: IC50 (Calcium ion release in cells)
Outline: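 Jurkat J77 cells loaded with Fluo-4/Pluronic F-127 for 30 min at 37 °C, then incubated with compound at room temperature in the dark in PBS–CaCl2 with 10% FCS. Stimulation with anti-CD3 (0.2 μg/ml final) plus GAM (0.75 μg/ml final) at 37 °C, then flow-cytometric Ca2+ fluorescence acquired for 200 s.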

Row | Compound | IC50 [1] [nM] | IC50 [2] [nM]
1 | CS(=O)(=O)Nc1ccccc1Nc1nc(Nc2cccc(OCCN3CCCC3)c2)ncc1Cl [Example 140, N-(2-(5-chloro-2-(3-(2-(pyrrolidin-1-yl)ethoxy)phenylamino)pyrimidin-4-ylamino)phenyl)methanesulfonamide] | < 100 | < 100
2 | CCNC(=O)COc1cccc(Nc2ncc(Cl)c(Nc3ccccc3NS(C)(=O)=O)n2)c1 [Example 151, 2-(3-(5-chloro-4-(2-(methylsulfonamido)phenylamino)pyrimidin-2-ylamino)phenoxy)-N-ethylacetamide 2,2,2-trifluoroacetate] | < 100 | < 100
3 | COc1cc(Nc2ncc(F)c(Nc3ccc4c(c3NS(C)(=O)=O)OCCO4)n2)cc(OC)c1OC [Example 167, N-(6-(5-fluoro-2-(3,4,5-trimethoxyphenylamino)pyrimidin-4-ylamino)-2,3-dihydrobenzo[b][1,4]dioxin-5-yl)methanesulfonamide] | < 100 | < 100
4 | COc1ccc(Nc2ncc(F)c(Nc3ccccc3NS(C)(=O)=O)n2)cc1 [Example 35, N-(2-(5-fluoro-2-(4-methoxyphenylamino)pyrimidin-4-ylamino)phenyl)methanesulfonamide] | 100 to 1000 | 100 to 1000
5 | CCN(CC)CCOc1ccc(Nc2ncc(Cl)c(Nc3ccccc3NS(C)(=O)=O)n2)cc1 [Example 127, N-(2-(5-chloro-2-(4-(2-(diethylamino)ethoxy)phenylamino)pyrimidin-4-ylamino)phenyl)methanesulfonamide] | < 100 | < 100
6 | CS(=O)(=O)Nc1ccccc1Nc1nc(Nc2cccc(OCC3CCNCC3)c2)ncc1Cl [Example 129, N-(2-(5-chloro-2-(3-(piperidin-4-ylmethoxy)phenylamino)pyrimidin-4-ylamino)phenyl)methanesulfonamide] | < 100 | 100 to 1000
7 | COc1cc(Nc2ncc(F)c(Nc3cccc(C)c3NS(C)(=O)=O)n2)cc(OCCN2CCCCC2)c1OC [Example 114, N-(2-(2-(3,4-dimethoxy-5-(2-(piperidin-1-yl)ethoxy)phenylamino)-5-fluoropyrimidin-4-ylamino)-6-methylphenyl)methanesulfonamide] | < 100 | 100 to 1000
8 | COc1cccc(Nc2nc(Nc3cc(OC)c(OC)c(OC)c3)ncc2F)c1NS(C)(=O)=O [Example 172, N-(2-(5-fluoro-2-(3,4,5-trimethoxyphenylamino)pyrimidin-4-ylamino)-6-methoxyphenyl)methanesulfonamide] | 100 to 1000 | 100 to 1000
